Assay results published in patent US20250197428A1, “INHIBITORS OF KIF18A AND USES THEREOF” (ACCENT THERAPEUTICS, INC., priority 2022, published 2025).
Where two headings read alike, the source gives them in different places.

Legend:
[1] = Caco-2 permeation assay, bidirectional permeability; assay type: in vitro ADME; settings: human, Caco-2, pH 7.4, 5 μM, Papp(B-A)/Papp(A-B)
Procedure: 1. Caco-2 Permeation Assay: Evaluation of the Bidirectional Permeabilities of Compounds.
Samples were analyzed through LC/MS/MS for estimating the apparent permeability coefficients (Papp) of compounds across Caco-2 cell monolayers. Caco-2 cells (American Type Culture Collection) were incubated and seeded onto HTS Transwell-96 Well Permeable Supports (Corning Corporation) for 14 days using a cell medium consisting of Dulbecco's Modified Eagle's Medium (DMEM) with high glucose and L-glutamine supplemented with 10% FBS, 1× penicillin-streptomycin mixture and 1×non-essential amino acids (NEAA). Cell monolayer integrity was measured using an automated tissue resistance measuring system (World Precision Instruments). Stock solutions of compounds and control compounds in DMSO were diluted with HBSS (10 mM HEPES, pH 7.4) to reach a final concentration of 5 μM with a final concentration of DMSO <0.1%. HBSS was then removed after 30 minutes of preincubation, and 75 μL of test compound was added to the apical compartment of the Transwell insert. The basolateral compartment was filled with 235 μL of HBSS (10 mM HEPES, pH 7.4) containing 2% BSA. Rate of drug transport in the basolateral to apical direction was obtained by adding 235 μL of test compound to the receiver plate wells (basolateral compartment) and filling with 75 μL of HBSS (10 mM HEPES, pH 7.4) containing 2% BSA. Time 0 samples were prepared by transferring 25 μL of 5 μM working solution to wells of the 96-deepwell plate containing 25 μL HBSS (10 mM HEPES and 2% BSA, pH 7.4), followed by the addition 200 μL of cold methanol containing appropriate internal standards (100 nM alprazolam, 200 nM labetalol, 200 nM caffeine and 200 nM diclofenac). After incubating at 37° C. for 2 h, 25 μL samples from donor sides (apical compartment) were transferred to a 96-well plate containing 25 μL HBSS (10 mM HEPES and 2% BSA, pH 7.4). 25 μL samples from receiver sides (basolateral compartment) were removed and transferred to a new plate containing 25 μL HBSS (10 mM HEPES, pH 7.4). 200 μL of cold methanol containing internal standards (100 nM alprazolam, 200 nM labetalol, 200 nM caffeine and 200 nM diclofenac) was added to terminate the reaction. Samples were vortexed for 5 minutes and then centrifuged at 3,220 g for 40 minutes. An aliquot of 100 μL of the supernatant is mixed with 100 μL of ultra-pure water for LC-MS/MS analysis. All incubations are performed in duplicate. Solutions were discarded from the transwell plate. 100 μL Lucifer Yellow solution (100 μM in HBSS) was added to each well of transwell insert and 300 μL of HBSS to each well of receiver. After incubating at 37° C. for 30 minutes, 80 μL was aliquotted from each well of apical and basolateral sides to a solid black plate. The plate was then read with Tecan Infinite™ M 200 (Excitation/Emission wavelength […]).
All calculations were carried out using Microsoft Excel. Peak areas were determined from extracted ion chromatograms. The leakage of Lucifer Yellow, in unit of percentage (%), can be calculated using the following equation: […]
LY leakage of <1% is acceptable to indicate the well-qualified Caco-2 monolayers. The apparent permeability coefficient (Papp), in units of centimeter per second, can be calculated for Caco-2 drug transport assays using the following equation: […]
Where VA is the volume (in mL) in the receiver well (0.235 mL for Ap→Bl flux and 0.075 mL for Bl→Ap flux), Area is the surface area of the membrane (0.143 cm^2 for HTS Transwell-96 Well Permeable Supports), and time is the total transport time in seconds. The efflux ratio can be determined using the following equation: […]
Where Papp (B-A) indicates the apparent permeability coefficient in basolateral to apical direction, and Papp (A-B) indicates the apparent permeability coefficient in apical to basolateral direction.
The recovery can be determined using the following equation: […]

OVCAR-3 cells = assay: In vitro anti-proliferative activity assay in cancer cell line OVCAR-3 (CellTiter-Glo, 4- or 7-day); assay type: cell-based; settings: Homo sapiens, read-out: OVCAR-3 cellular antiproliferation assay IC50
KIF18A = KIF18A (Homo sapiens (Human), UniProt Q8NI77); assay: KIF18A Biochemical Assay (ATPase, ADP-Glo)
KIF18A, sequence (Q8NI77 1-367): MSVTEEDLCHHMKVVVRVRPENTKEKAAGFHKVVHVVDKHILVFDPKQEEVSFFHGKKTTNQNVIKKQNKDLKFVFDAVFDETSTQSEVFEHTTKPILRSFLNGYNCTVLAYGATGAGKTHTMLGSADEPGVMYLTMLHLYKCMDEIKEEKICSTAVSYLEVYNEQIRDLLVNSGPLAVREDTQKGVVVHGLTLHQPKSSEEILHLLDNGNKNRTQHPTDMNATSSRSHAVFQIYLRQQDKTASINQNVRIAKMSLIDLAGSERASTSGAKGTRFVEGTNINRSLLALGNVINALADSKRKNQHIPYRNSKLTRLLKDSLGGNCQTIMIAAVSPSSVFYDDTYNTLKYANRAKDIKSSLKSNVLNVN
KIF18A, sequence (P02550 whole entry partner): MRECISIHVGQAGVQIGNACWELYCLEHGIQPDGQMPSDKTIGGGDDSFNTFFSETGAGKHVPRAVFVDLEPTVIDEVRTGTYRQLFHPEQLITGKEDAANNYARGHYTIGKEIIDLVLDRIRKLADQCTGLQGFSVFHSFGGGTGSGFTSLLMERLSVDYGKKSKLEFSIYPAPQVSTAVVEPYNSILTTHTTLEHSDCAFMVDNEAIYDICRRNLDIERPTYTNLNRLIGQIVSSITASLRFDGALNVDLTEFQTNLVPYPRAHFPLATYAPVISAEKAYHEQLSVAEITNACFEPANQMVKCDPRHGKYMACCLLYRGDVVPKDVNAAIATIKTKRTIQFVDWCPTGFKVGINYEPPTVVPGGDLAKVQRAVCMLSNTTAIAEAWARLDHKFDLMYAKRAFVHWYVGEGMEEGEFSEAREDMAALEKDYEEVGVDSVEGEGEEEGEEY
KIF18A, sequence (P02554 whole entry partner): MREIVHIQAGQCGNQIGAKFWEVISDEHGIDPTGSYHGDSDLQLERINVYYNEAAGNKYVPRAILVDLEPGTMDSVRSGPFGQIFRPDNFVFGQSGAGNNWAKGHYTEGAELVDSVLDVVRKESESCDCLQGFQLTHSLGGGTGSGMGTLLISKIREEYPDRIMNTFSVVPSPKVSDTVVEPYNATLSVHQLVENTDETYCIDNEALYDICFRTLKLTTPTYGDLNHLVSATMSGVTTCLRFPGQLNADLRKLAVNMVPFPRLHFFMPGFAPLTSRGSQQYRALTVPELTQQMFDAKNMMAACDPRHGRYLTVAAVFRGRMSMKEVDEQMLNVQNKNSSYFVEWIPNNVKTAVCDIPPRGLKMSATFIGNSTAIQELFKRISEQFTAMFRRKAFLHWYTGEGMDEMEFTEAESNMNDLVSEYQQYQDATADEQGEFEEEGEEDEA

| SMILES | efflux ratio at 2 h, 5 μM [1] | IC50 (OVCAR-3 cells; OVCAR-3, 168 h, 7-day assay) [µM] | IC50 (KIF18A) [µM] | IC50 (OVCAR-3 cells; OVCAR-3, 96 h, 4-day assay) [µM] |
| --- | --- | --- | --- | --- |
| Cc1cc(NC(=O)c2ccc(NS(C)(=O)=O)cc2N2CC[C@]3(C(F)F)C[C@@H]3C2)nc(N2CCC(F)(F)CC2)n1 [Example 54] | < 10 | 0.1 to 0.5 | < 0.1 | – |
| Cc1ccc(NC(=O)c2ccc(NS(=O)(=O)CCO)cc2N2CC[Si](C)(C)CC2)nc1N1CCOCC1 [Example 2, 2-(4,4-dimethyl-1,4-azasilinan-1-yl)-4-((2-hydroxyethyl)sulfonamido)-N-(5-methyl-6-morpholinopyridin-2-yl)benzamide] | < 10 | – | < 0.1 | < 0.1 |
| Cc1cc(NC(=O)c2c(F)cc(NS(=O)(=O)CCO)cc2N2CC[C@@]3(C(F)F)C[C@H]3C2)nc(N2CCC(F)(F)CC2)n1 [Example 72] | ≥ 10 | 0.1 to 0.5 | < 0.1 | – |
| O=C(Nc1ccnc(C2CCC(F)(F)CC2)n1)c1ccc(NS(=O)(=O)CCO)cc1N1CC[C@]2(C(F)F)C[C@@H]2C1 [Example 75] | < 10 | < 0.1 | < 0.1 | – |
| O=C(Nc1ccnc(N2CCC(F)(F)CC2)n1)c1c(F)cc(NS(=O)(=O)CCO)cc1N1CC[C@@]2(C(F)F)C[C@H]2C1 [Example 70] | ≥ 10 | < 0.1 | < 0.1 | – |
| C[Si]1(C)CCN(c2cc(NS(C)(=O)=O)ccc2C(=O)Nc2cccc(OC[C@@H](O)C(F)(F)F)n2)CC1 [Example 127] | < 10 | < 0.1 | < 0.1 | – |
| Cc1cc(NC(=O)c2ccc(NS(=O)(=O)NCCO)cc2N2CC[C@]3(C(F)F)C[C@@H]3C2)nc(N2CCC(F)(F)CC2)n1 [Example 56] | ≥ 10 | 0.1 to 0.5 | < 0.1 | – |
| Cc1cc(NC(=O)c2ccc(NS(=O)(=O)CCO)cc2N2CCC3(C)CC3C2)nc(N2CCC(F)(F)CC2)n1 (stereo not drawn) [Example 37] | < 10 | – | < 0.1 | < 0.1 |
| C[Si]1(C)CCN(c2cc(NS(=O)(=O)CCO)ccc2C(=O)Nc2cccc(OCC(O)C(F)(F)F)n2)CC1 (stereo not drawn) [Example 119] | < 10 | < 0.1 | < 0.1 | – |
| Cc1cc(NC(=O)c2ccc(NS(=O)(=O)CCO)cc2N2CC[C@@]3(C(F)F)C[C@H]3C2)nc(N2CCC(F)(F)CC2)c1 [Example 48, 2-((1R,6S)-6-(difluoromethyl)-3-azabicyclo[4.1.0]heptan-3-yl)-N-(6-(4,4-difluoropiperidin-1-yl)-4-methylpyridin-2-yl)-4-((2-hydroxyethyl)sulfonamido)benzamide] | ≥ 10 | – | < 0.1 | < 0.1 |
| Cc1cc(NC(=O)c2ccc(NS(=O)(=O)CCO)cc2N2CC[Si](C)(C)CC2)nc(N2CCC(F)(F)CC2)c1 [Example 8, N-(6-(4,4-difluoropiperidin-1-yl)-4-methylpyridin-2-yl)-2-(4,4-dimethyl-1,4-azasilinan-1-yl)-4-((2-hydroxyethyl)sulfonamido)benzamide] | < 10 | – | 0.1 to 0.5 | < 0.1 |
| O=C(Nc1cccc(N2CCC(F)(F)CC2)n1)c1ccc(NS(=O)(=O)CCO)cc1N1CC[C@@]2(C(F)F)C[C@H]2C1 [Example 66] | < 10 | < 0.1 | < 0.1 | – |
| Cc1cc(NC(=O)c2ccc(NS(=O)(=O)CCO)cc2N2CC[Si](C)(C)CC2)nc(N2CCOC(F)(F)C2)n1 [Example 115] | ≥ 10 | 0.1 to 0.5 | < 0.1 | – |
| O=C(Nc1ccnc(N2CCC(F)(F)CC2)n1)c1ccc(NS(=O)(=O)CCO)cc1N1CC[C@]2(C(F)F)C[C@@H]2C1 [Example 60] | ≥ 10 | < 0.1 | < 0.1 | – |
| CC(C)(C)NS(=O)(=O)c1cccc(NC(=O)c2ccc(NS(=O)(=O)CCO)cc2N2CC[Si](C)(C)CC2)n1 [Example 98] | < 10 | – | < 0.1 | < 0.1 |
| C[C@H]1CN(c2cccc(NC(=O)c3ccc(NS(=O)(=O)CCO)cc3N3CC[Si](C)(C)CC3)n2)CCO1 [Example 17] | ≥ 10 | – | < 0.1 | < 0.1 |
| Cc1cc(NC(=O)c2ccc(NS(=O)(=O)CCO)nc2N2CC[Si](C)(C)CC2)nc(N2CCC(F)(F)CC2)n1 [Example 109] | < 10 | 0.5 to 1 | < 0.1 | – |
| Cc1cc(NC(=O)c2cnc(NS(=O)(=O)CCO)cc2N2CC[Si](C)(C)CC2)nc(N2CCC(F)(F)CC2)n1 [Example 106] | < 10 | < 0.1 | < 0.1 | – |
| Cc1cc(NC(=O)c2ccc(NS(=O)(=O)CCO)cc2N2CC[C@]3(C(F)F)C[C@@H]3C2)nc(N2CCC(F)(F)CC2)n1 [Example 58] | ≥ 10 | < 0.1 | < 0.1 | – |
| Cc1cc(NC(=O)c2ccc(NS(=O)(=O)CCO)cc2N2CC[Si](C)(C)CC2)nc(N2CCC3(CC3)C2)n1 [Example 21] | < 10 | – | 0.1 to 0.5 | 0.1 to 0.5 |
| CC(C)(C)NS(=O)(=O)c1cccc(NC(=O)c2ccc(NS(=O)(=O)C(C)(C)C)cc2N2CC[Si](C)(C)CC2)c1 [Example 4, N-(3-(N-(tert-butyl)sulfamoyl)phenyl)-2-(4,4-dimethyl-1,4-azasilinan-1-yl)-4-((1,1-dimethylethyl)sulfonamido)benzamide] | < 10 | – | 0.5 to 1 | 0.1 to 0.5 |
| CNS(=O)(=O)Nc1ccc(C(=O)Nc2cc(C)nc(C3CCC(F)(F)CC3)n2)c(N2CC[Si](C)(C)CC2)c1 [Example 118] | < 10 | 0.1 to 0.5 | < 0.1 | – |
| C[Si]1(C)CCN(c2cc(NS(=O)(=O)CCO)ccc2C(=O)Nc2cccc(OCCC(F)(F)F)n2)CC1 [Example 16] | < 10 | – | < 0.1 | < 0.1 |
| Cc1cc(NC(=O)c2ccc(NS(=O)(=O)CCO)cc2N2CC[C@]3(C)C[C@@H]3C2)nc(N2CCC(F)(F)CC2)n1 [Example 35] | < 10 | – | < 0.1 | 0.1 to 0.5 |
| C[Si]1(C)CCN(c2cc(NS(=O)(=O)CCO)ccc2C(=O)Nc2ccnc(OCCC(F)(F)F)n2)CC1 [Example 10] | ≥ 10 | – | < 0.1 | 0.5 to 1 |
